Assay: xn = mol fraction of the nth substance listed

COC(=O)OC + CCO
101.3 kPa
Details	viscosity [mPa·s]
293.15 K, x1 = 0.0498	1.07
293.15 K, x1 = 0.0978	0.974
293.15 K, x1 = 0.176	0.853
293.15 K, x1 = 0.2928	0.74
293.15 K, x1 = 0.4053	0.675
293.15 K, x1 = 0.4981	0.646
293.15 K, x1 = 0.5982	0.625
293.15 K, x1 = 0.6962	0.613
293.15 K, x1 = 0.8024	0.609
293.15 K, x1 = 0.8894	0.607
293.15 K, x1 = 0.9516	0.618
298.15 K, x1 = 0.0598	0.966
298.15 K, x1 = 0.095	0.897
298.15 K, x1 = 0.1692	0.786
298.15 K, x1 = 0.2725	0.685
298.15 K, x1 = 0.3854	0.625
298.15 K, x1 = 0.4778	0.594
298.15 K, x1 = 0.5686	0.573
298.15 K, x1 = 0.6777	0.561
298.15 K, x1 = 0.7915	0.555
298.15 K, x1 = 0.8775	0.556
298.15 K, x1 = 0.9366	0.565
303.15 K, x1 = 0.0673	0.832
303.15 K, x1 = 0.1142	0.752
303.15 K, x1 = 0.2249	0.627
303.15 K, x1 = 0.2894	0.588
303.15 K, x1 = 0.3906	0.541
303.15 K, x1 = 0.4848	0.521
303.15 K, x1 = 0.5996	0.512
303.15 K, x1 = 0.6931	0.513
303.15 K, x1 = 0.8038	0.512
303.15 K, x1 = 0.9072	0.52
303.15 K, x1 = 0.9462	0.527
313.15 K, x1 = 0.0504	0.731
313.15 K, x1 = 0.0934	0.662
313.15 K, x1 = 0.2082	0.535
313.15 K, x1 = 0.3087	0.472
313.15 K, x1 = 0.393	0.45
313.15 K, x1 = 0.5026	0.44
313.15 K, x1 = 0.6011	0.438
313.15 K, x1 = 0.7052	0.44
313.15 K, x1 = 0.7968	0.445
313.15 K, x1 = 0.9075	0.463
313.15 K, x1 = 0.9507	0.475

C1N2CN3CN1CN(C2)C3 + [2H]O[2H]
viscosity [mPa·s], 101 kPa
Details	x1 = 0.004002	x1 = 0.007971	x1 = 0.01158	x1 = 0.01549	x1 = 0.01969
293.15 K	1.217	1.252	1.311	1.396	1.515
298.15 K	1.106	1.141	1.189	1.258	1.35
300.15 K	1.007	1.036	1.077	1.135	1.219
305.15 K	0.92	0.962	1.002	1.049	1.108

CCCCCCN + C1CCCCC1
303.15 K, 101 kPa
Details	viscosity [mPa·s]
x2 = 0.1064	0.7192
x2 = 0.2992	0.7005
x2 = 0.4953	0.7021
x2 = 0.5974	0.7073
x2 = 0.6964	0.7145
x2 = 0.7966	0.72
x2 = 0.898	0.7541

CO/N=C(\C(=O)N[C@@H]1C(=O)N2C(C(=O)[O-])=C(CSc3nc(C)c(CC(=O)[O-])s3)CS[C@H]12)c1csc(N)n1.[Na+].[Na+] + O
Details	viscosity [mPa·s]
293.15 K, 101 kPa, x1 = 0.002695	1.285

Oc1ccccc1 + O=C1CCCCC1
298.15 K, 101.3 kPa
Details	viscosity [mPa·s]
x2 = 0.79	2.24
x2 = 0.9	2.02

COCCOCCOC + CCOC(C)=O
viscosity [mPa·s], 101.33 kPa
Details	x1 = 0.1016	x1 = 0.2005	x1 = 0.3016	x1 = 0.4007	x1 = 0.4999	x1 = 0.6005	x1 = 0.6994	x1 = 0.8013	x1 = 0.8999
298.15 K	0.477	0.527	0.579	0.633	0.69	0.748	0.815	0.867	0.92
303.15 K	0.451	0.497	0.546	0.594	0.645	0.698	0.75	0.807	0.854
308.15 K	0.428	0.469	0.513	0.558	0.604	0.653	0.706	0.748	0.794
313.15 K	0.406	0.445	0.485	0.526	0.569	0.612	0.659	0.7	0.74
318.15 K	0.385	0.421	0.459	0.496	0.535	0.575	0.616	0.653	0.689

CC=CC(=O)O + c1ccccc1
viscosity [mPa·s], 101 kPa
Details	298.15 K	303.15 K	313.15 K	323.15 K
x1 = 0.0503	0.6275	0.5854	0.5132	0.4526
x1 = 0.102	0.6591	0.6129	0.5349	0.472
x1 = 0.1492	0.6902	0.6364	0.5555	0.4889

CCCO + CO
Details	viscosity [mPa·s]
293.15 K, 101 kPa, x2 = 0.25	1.379
293.15 K, 101 kPa, x2 = 0.5	1.015
293.15 K, 101 kPa, x2 = 0.75	0.825
293.15 K, 101.3 kPa, x2 = 0.174	1.78
293.15 K, 101.3 kPa, x2 = 0.339	1.45
293.15 K, 101.3 kPa, x2 = 0.51	1.16
293.15 K, 101.3 kPa, x2 = 0.741	0.857
293.15 K, 101.3 kPa, x2 = 0.873	0.711
298.15 K, 101 kPa, x2 = 0.25	1.243
298.15 K, 101 kPa, x2 = 0.5	0.931
298.15 K, 101 kPa, x2 = 0.75	0.775
298.15 K, 101.33 kPa, x2 = 0.1414	1.672
298.15 K, 101.33 kPa, x2 = 0.2419	1.483
298.15 K, 101.33 kPa, x2 = 0.3419	1.315
298.15 K, 101.33 kPa, x2 = 0.4462	1.159
298.15 K, 101.33 kPa, x2 = 0.5137	1.067
298.15 K, 101.33 kPa, x2 = 0.5731	0.992
298.15 K, 101.33 kPa, x2 = 0.7216	0.825
298.15 K, 101.33 kPa, x2 = 0.8038	0.744
298.15 K, 101.33 kPa, x2 = 0.8805	0.662
303.15 K, 101 kPa, x2 = 0.25	1.128
303.15 K, 101 kPa, x2 = 0.5	0.856
303.15 K, 101 kPa, x2 = 0.75	0.717
308.15 K, 101 kPa, x2 = 0.25	1.028
308.15 K, 101 kPa, x2 = 0.5	0.788
308.15 K, 101 kPa, x2 = 0.75	0.663
313.15 K, 101 kPa, x2 = 0.25	0.938
313.15 K, 101 kPa, x2 = 0.5	0.728
313.15 K, 101 kPa, x2 = 0.75	0.615
313.15 K, 101.3 kPa, x2 = 0.174	1.17
313.15 K, 101.3 kPa, x2 = 0.339	0.986
313.15 K, 101.3 kPa, x2 = 0.51	0.822
313.15 K, 101.3 kPa, x2 = 0.741	0.624
313.15 K, 101.3 kPa, x2 = 0.873	0.53
318.15 K, 101 kPa, x2 = 0.25	0.859
318.15 K, 101 kPa, x2 = 0.5	0.673
318.15 K, 101 kPa, x2 = 0.75	0.571
323.15 K, 101 kPa, x2 = 0.25	0.787
323.15 K, 101 kPa, x2 = 0.5	0.623
323.15 K, 101 kPa, x2 = 0.75	0.531

Oc1ccccc1 + Nc1ccccc1
101 kPa
Details	viscosity [mPa·s]
293.15 K, x1 = 0.0786	5.09
293.15 K, x1 = 0.1517	6.1
293.15 K, x1 = 0.2315	7.35
293.15 K, x1 = 0.3105	8.89
293.15 K, x1 = 0.3914	10.59
293.15 K, x1 = 0.473	12.15
293.15 K, x1 = 0.5355	13.2
293.15 K, x1 = 0.6225	14.18
293.15 K, x1 = 0.693	14.47
293.15 K, x1 = 0.7683	14.21
293.15 K, x1 = 0.8489	13.31
293.15 K, x1 = 0.922	12.21
303.15 K, x1 = 0.0741	3.66
303.15 K, x1 = 0.1582	4.34
303.15 K, x1 = 0.2314	5.07
303.15 K, x1 = 0.3142	5.95
303.15 K, x1 = 0.3889	6.85
303.15 K, x1 = 0.4691	7.7
303.15 K, x1 = 0.5374	8.36
303.15 K, x1 = 0.6159	8.89
303.15 K, x1 = 0.6906	9.07
303.15 K, x1 = 0.7667	8.89
303.15 K, x1 = 0.8466	8.34
303.15 K, x1 = 0.9243	7.68
308.1 K, x1 = 0.349	5.39
308.1 K, x1 = 0.511	6.54
308.1 K, x1 = 0.677	7.21
308.1 K, x1 = 0.795	6.92
313.15 K, x1 = 0.0741	2.74
313.15 K, x1 = 0.1582	3.15
313.15 K, x1 = 0.2314	3.61
313.15 K, x1 = 0.3142	4.1
313.15 K, x1 = 0.3889	4.61
313.15 K, x1 = 0.4691	5.1
313.15 K, x1 = 0.5374	5.45
313.15 K, x1 = 0.6159	5.73
313.15 K, x1 = 0.6906	5.83
313.15 K, x1 = 0.7667	5.73
313.15 K, x1 = 0.8466	5.46
313.15 K, x1 = 0.9243	5.11
